The source of these data is ChEMBL document CHEMBL5215002, “Selective Inhibition of PTP1B by New Anthraquinone Glycosides from Knoxia valerianoides” (J Nat Prod, 2022).

Calls of active or inactive are those of the source. No cut-off for these calls is given here. Where only a bound is given, the exact number is not on record here.

The species named for one experiment is Homo sapiens. Kind of experiment: Selectivity index, ratio of IC50 for inhibition of recombinant human TCPTP (1 to 314 residues) expressed in baculovirus infected insect cells to IC50 for inhibition of N-terminal His-tagged recombinant human PTP1B expressed in Escherichia coli.
Experiment [1] concerns the target T1, Tyrosine-protein phosphatase non-receptor type 1 (Homo sapiens, UniProt P18031).
T1 sequence (P18031 whole entry): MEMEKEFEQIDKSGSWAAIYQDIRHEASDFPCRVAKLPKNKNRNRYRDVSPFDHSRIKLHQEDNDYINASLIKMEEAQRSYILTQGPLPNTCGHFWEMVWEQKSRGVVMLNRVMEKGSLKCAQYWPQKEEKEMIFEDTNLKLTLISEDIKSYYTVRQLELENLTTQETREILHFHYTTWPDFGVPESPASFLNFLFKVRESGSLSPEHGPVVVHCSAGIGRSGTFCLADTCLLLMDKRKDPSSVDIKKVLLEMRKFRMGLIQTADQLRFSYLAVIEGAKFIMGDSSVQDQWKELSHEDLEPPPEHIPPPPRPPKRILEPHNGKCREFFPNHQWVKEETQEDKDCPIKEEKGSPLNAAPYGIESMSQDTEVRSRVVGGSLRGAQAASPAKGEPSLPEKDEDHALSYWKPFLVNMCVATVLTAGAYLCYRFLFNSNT
Kind of experiment: Mixed type inhibition of N-terminal His-tagged recombinant human PTP1B expressed in Escherichia coli using pNPP as substrate assessed as inhibition constant preincubated for 15 mins followed by substrate addition and measured after 15 mins by Dixon plot analysis.

Experiment [2] concerns the target T2, Tyrosine-protein phosphatase non-receptor type 1 (Homo sapiens) (UniProt P18031).
T2 sequence (whole entry): T1 sequence (P18031 whole entry)
Description: Mixed type inhibition of N-terminal His-tagged recombinant human PTP1B expressed in Escherichia coli assessed as reduction in Vmax with increase in Km using varying concentrations of pNPP as substrate preincubated for 15 mins followed by substrate addition and measured after 15 mins by Lineweaver-Burk plot analysis. The note with it: time 30.0 min.

Experiment [3] has as its target T1, Tyrosine-protein phosphatase non-receptor type 1. Description: Inhibition of N-terminal His-tagged recombinant human PTP1B expressed in Escherichia coli.
Experiment [4] addresses T3, Tyrosine-protein phosphatase non-receptor type 2 (Homo sapiens, UniProt P17706).
T3 sequence (P17706 whole entry): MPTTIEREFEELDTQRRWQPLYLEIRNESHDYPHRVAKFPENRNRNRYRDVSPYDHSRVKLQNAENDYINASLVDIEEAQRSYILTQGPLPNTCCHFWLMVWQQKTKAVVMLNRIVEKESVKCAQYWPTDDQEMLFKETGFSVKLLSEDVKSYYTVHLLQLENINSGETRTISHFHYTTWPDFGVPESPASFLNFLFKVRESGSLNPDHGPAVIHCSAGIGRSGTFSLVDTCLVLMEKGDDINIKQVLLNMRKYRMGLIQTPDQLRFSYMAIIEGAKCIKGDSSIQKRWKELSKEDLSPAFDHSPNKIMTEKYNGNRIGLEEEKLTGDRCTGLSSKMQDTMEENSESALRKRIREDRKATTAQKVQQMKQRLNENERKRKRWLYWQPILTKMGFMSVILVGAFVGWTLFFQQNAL
Description: Inhibition of recombinant human TCPTP (1 to 314 residues) expressed in baculovirus-insect cells.

Experiment [5] deals with T4, Tyrosine-protein phosphatase non-receptor type 2 (Homo sapiens) (UniProt P17706).
T4 sequence (whole entry): T3 sequence (P17706 whole entry)
Kind of experiment: Inhibition of recombinant human TCPTP (1 to 314 residues) expressed in baculovirus-insect cells at 100 uM relative to control.

On to `Cc1c(O[C@@H]2O[C@H](CO[C@@H]3OC[C@@H](O)[C@H](O)[C@H]3O)[C@@H](O)[C@H](O)[C@H]2O)cc2c(c1O)C(=O)c1ccc(O)c(O)c1C2=O`, for which, in the experiment listed under Homo sapiens, the Ratio IC50 was found to be 74.3. In experiment [1], the Ki stood at 1.21 µM. Moreover, in experiment [2], the inhibition entry was “Active”. Further, the values for the IC50 in experiment [3] and in experiment [4] were 1.05 µM and 78 µM, respectively.
Regarding `Cc1c(O[C@@H]2O[C@H](CO[C@@H]3OC[C@@H](O)[C@H](O)[C@H]3O)[C@@H](O)[C@H](O)[C@H]2O)cc2c(c1O)C(=O)c1ccccc1C2=O`, the IC50 in experiment [3] amounted to 13.7 µM.
On to `COc1ccc2c(c1)C(=O)c1cc(O)c(CO[C@@H]3O[C@H](CO[C@@H]4OC[C@@H](O)[C@H](O)[C@H]4O)[C@@H](O)[C@H](O)[C@H]3O)c(O)c1C2=O`, for which, in experiment [3], the IC50 was found to be 7.52 µM.
Consider `COc1ccc2c(c1O)C(=O)c1cc(O[C@@H]3O[C@H](CO[C@@H]4OC[C@@H](O)[C@H](O)[C@H]4O)[C@@H](O)[C@H](O)[C@H]3O)c(C)c(O)c1C2=O`, for which the Ratio IC50 in the experiment listed under Homo sapiens stood at 13.7. The IC50 in experiment [3] is 7.28 µM; in experiment [4], > 100 µM. In experiment [5], the inhibition worked out at 40%.
As for `COc1ccc2c(c1O)C(=O)c1cc(O[C@@H]3O[C@H](CO)[C@@H](O)[C@H](O)[C@H]3O)c(CO)c(O)c1C2=O`, the IC50 in experiment [3] came to 3.05 µM.
Regarding `COc1ccc2c(c1)C(=O)c1cc(O[C@@H]3O[C@H](CO[C@@H]4OC[C@@H](O)[C@H](O)[C@H]4O)[C@@H](O)[C@H](O)[C@H]3O)c(C)c(O)c1C2=O`, in experiment [3], the 50% inhibitory concentration (IC50) was 9.04 µM.
As to `COc1ccc2c(c1)C(=O)c1cc(O[C@@H]3O[C@H](CO)[C@@H](O)[C@H](O)[C@H]3O)c(CO)c(O)c1C2=O`, the Ratio IC50 in the experiment listed under Homo sapiens came out at 64.1. The 50% inhibitory concentration (IC50) in experiment [3] is 1.56 µM; in experiment [4], > 100 µM. Besides, the inhibition in experiment [5] was < 20%.
For the compound SODIUM ORTHOVANAD, the Ratio IC50 in the experiment listed under Homo sapiens is 0.67.
In the case of `O=C1c2ccccc2C(=O)c2c1cc(O)c(CO[C@@H]1O[C@H](CO)[C@@H](O)[C@H](O)[C@H]1O)c2O`, the Ratio IC50 in the experiment filed under Homo sapiens was found to be 25.9. Besides, the Ki in experiment [1] was found to be 3.02 µM. Further, the inhibition result in experiment [2] was “Active”. Further, the concentration for half-maximal inhibition (IC50) was 3.86 µM in experiment [3] and > 100 µM in experiment [4]. The inhibition in experiment [5] was < 20%.
As for `O=C1c2ccccc2C(=O)c2c1cc(O[C@@H]1O[C@H](CO)[C@@H](O)[C@H](O)[C@H]1O)c(CO)c2O`, the half-maximal inhibitory concentration (IC50) in experiment [3] was found to be 10.8 µM.
For the compound `COc1ccc2c(c1)C(=O)c1cc(O[C@@H]3O[C@H](CO[C@@H]4OC[C@@H](O)[C@H](O)[C@H]4O)[C@@H](O)[C@H](O)[C@H]3O)c(CO)c(O)c1C2=O`, in the experiment listed under Homo sapiens, the Ratio IC50 is 8.9. The IC50 was 11.3 µM in experiment [3] and > 100 µM in experiment [4]. Further, in experiment [5], the inhibition was < 20%.
Take `COc1ccc2c(c1O)C(=O)c1cc(O[C@@H]3O[C@H](CO[C@@H]4OC[C@@H](O)[C@H](O)[C@H]4O)[C@@H](O)[C@H](O)[C@H]3O)c(CO)c(O)c1C2=O`: in experiment [3], the IC50 was 3.52 µM.

The term Ki denotes the dissociation constant of the complex between target and ligand, obtained from inhibition or displacement. A word on the inhibition: it is how much of the control response was suppressed. As a reminder, the IC50 is the concentration that gives 50% inhibition.
